Reference: PubChem BioAssay AID330 (DTP/NCI, 2004)
Several values for one entry are separate records, joined by “and”; a condition that tells them apart may be missing. Equal entries are not always repeated. Toxic doses and inconclusive results are not listed. The calls were made as follows: active = survival T/C of 150% or more; inactive = T/C below 125% in these data.

Tested on: P388 leukemia ip, CD2F1 mice, survival T/C
Test: NCI In Vivo Anticancer Drug Screen. Data for tumor model P388 Leukemia (intraperitoneal) in CD2F1 (CDF1) mice
Conditions: endpoint: median survival time, higher = longer survival
Outline: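 Mice carrying the transplanted tumor received test compound or vehicle. Survival was recorded in each group, and the value is the treated-group measurement divided by that of the vehicle-treated control group.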

[1] = dose: 25.0 mg/kg/injection, schedule: Q01DX009 (ip), vehicle: saline
[2] = dose: 25.0 mg/kg/injection, schedule: Q01DX005 (ip), vehicle: Klucel (hydroxypropylcellulose) (HPC)
[3] = dose: 50.0 mg/kg/injection, schedule: Q01DX005 (ip), vehicle: Klucel (hydroxypropylcellulose) (HPC)
[4] = dose: 12.5 mg/kg/injection, schedule: Q01DX009 (ip), vehicle: saline with Tween-80
[5] = dose: 25.0 mg/kg/injection, schedule: Q01DX009 (ip), vehicle: saline with Tween-80
[6] = dose: 100.0 mg/kg/injection, schedule: Q01DX005 (ip), vehicle: Klucel (hydroxypropylcellulose) (HPC)

Measured: T/C

NCc1ccc(Cl)c(Cl)c1
inactive: dose: 6.25 mg/kg/injection, schedule: Q01DX009 (ip), vehicle: saline 110 % of control and 116 % of control | dose: 12.5 mg/kg/injection, schedule: Q01DX009 (ip), vehicle: saline 104 % of control and 107 % of control | [1] 100 % of control and 103 % of control | dose: 50.0 mg/kg/injection, schedule: Q01DX009 (ip), vehicle: saline 101 % of control and 104 % of control | dose: 100.0 mg/kg/injection, schedule: Q01DX009 (ip), vehicle: saline 103 % of control and 109 % of control

CCCCCCCCOc1cc2cc(O)oc3cc(=O)cc(o1)c23
inactive: dose: 60.0 mg/kg/injection, schedule: Q01DX005 (ip), vehicle: saline 108 % of control | dose: 120.0 mg/kg/injection, schedule: Q01DX005 (ip), vehicle: saline 122 % of control

C=C1CC2(CCCC(=O)C2)OC1=O (stereo unspecified)
inactive: dose: 12.5 mg/kg/injection, schedule: Q01DX005 (ip), vehicle: Klucel (hydroxypropylcellulose) (HPC) 97 % of control | [2] 101 % of control | [3] 99 % of control and 101 % of control

COc1cccc(C(Cc2ccccc2)Nc2ccccc2)c1OC (stereo unspecified)
inactive: dose: 3.0 mg/kg/injection, schedule: Q01DX005 (ip), vehicle: Klucel (hydroxypropylcellulose) (HPC) 94 % of control | dose: 6.0 mg/kg/injection, schedule: Q01DX005 (ip), vehicle: Klucel (hydroxypropylcellulose) (HPC) 93 % of control | dose: 12.0 mg/kg/injection, schedule: Q01DX005 (ip), vehicle: Klucel (hydroxypropylcellulose) (HPC) 93 % of control | [3] 92 % of control | dose: 200.0 mg/kg/injection, schedule: Q01DX005 (ip), vehicle: Klucel (hydroxypropylcellulose) (HPC) 88 % of control

CCO/C=N/NS(=O)(=O)c1ccc(C)cc1
inactive: dose: 6.25 mg/kg/injection, schedule: Q01DX009 (ip), vehicle: distilled water + Tween-80 108 % of control | dose: 12.5 mg/kg/injection, schedule: Q01DX009 (ip), vehicle: distilled water + Tween-80 108 % of control | dose: 12.5 mg/kg/injection, schedule: Q01DX009 (ip), vehicle: other 104 % of control | [4] 105 % of control | [5] 98 % of control | dose: 50.0 mg/kg/injection, schedule: Q01DX009 (ip), vehicle: other 104 % of control | dose: 50.0 mg/kg/injection, schedule: Q01DX009 (ip), vehicle: saline with Tween-80 96 % of control | dose: 100.0 mg/kg/injection, schedule: Q01DX009 (ip), vehicle: other 98 % of control | dose: 100.0 mg/kg/injection, schedule: Q01DX009 (ip), vehicle: saline with Tween-80 92 % of control | dose: 200.0 mg/kg/injection, schedule: Q01DX009 (ip), vehicle: other 106 % of control

O=c1[nH]c(=O)n(C2CCCS2)cc1F (stereo unspecified)
inactive: dose: 37.5 mg/kg/injection, schedule: Q01DX009 (ip), vehicle: suspension in saline 100 % of control | dose: 75.0 mg/kg/injection, schedule: Q01DX009 (ip), vehicle: suspension in saline 100 % of control | dose: 150.0 mg/kg/injection, schedule: Q01DX009 (ip), vehicle: suspension in saline 97 % of control

NC1=NCN(C2OC(CO)C(O)C2O)C(=O)N1 (stereo unspecified)
inactive: dose: 3.12 mg/kg/injection, schedule: Q01DX009 (ip), vehicle: saline 110 % of control | dose: 3.13 mg/kg/injection, schedule: Q01DX009 (ip), vehicle: saline 120 % of control | dose: 25.0 mg/kg/injection, schedule: Q01DX005 (iv), vehicle: saline 118 % of control | dose: 400.0 mg/kg/injection, schedule: Q01DX009 (ip), vehicle: saline 88 % of control and 90 % of control
active: [1] 150 % of control and 159 % of control | dose: 50.0 mg/kg/injection, schedule: Q01DX005 (ip), vehicle: saline 150 % of control | dose: 120.0 mg/kg/injection, schedule: Q01DX009 (ip), vehicle: saline 190 % of control | dose: 140.0 mg/kg/injection, schedule: Q01DX009 (ip), vehicle: saline 199 % of control and 203 % of control | dose: 160.0 mg/kg/injection, schedule: Q01DX009 (ip), vehicle: saline 200 % of control | dose: 200.0 mg/kg/injection, schedule: Q01DX005 (ip), vehicle: saline 184 % of control

COC(=O)C(CSC1CCCCC1=O)NC(C)=O (stereo unspecified)
inactive: [2] 93 % of control | [3] 95 % of control | [6] 101 % of control

[CH3][Sn]([CH3])([n]1cc(CC(=O)O)c2ccccc21)[n]1cc(CC(=O)O)c2ccccc21
inactive: [3] 116 % of control | [6] 108 % of control

CCCCCCCCCCSCC(N)CO (stereo unspecified)
inactive: dose: 6.25 mg/kg/injection, schedule: Q01DX009 (ip), vehicle: saline with Tween-80 93 % of control | [4] 100 % of control | [5] 100 % of control
